# Measured values: patent publication US9738634B2, “Heterocyclic amide compound and herbicide” (SYNGENTA PARTICIPATIONS AG, priority 2013, dated 2017)
# Columns and labels:
# Type in all cases: in vivo
# [1] = tested on: fig-leafed goosefoot; experiment: Test Example 3: weedkilling efficacy through soil treatment; M: fig-leafed goosefoot; conditions: treatment dosage 315 g/ha
# In short: (§1)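 Crop and weed responses were judged three weeks after a uniform surface spray of the water-diluted emulsion at the given g/ha rate. Seeds sat beneath about 1.5 cm of sterilized diluvial soil, and boxes stood in a greenhouse at 25 to 30° C.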
# [2] = tested on: directly sown rice; experiment: Test Example 3: soil treatment, effect on crop; b: directly sown rice; conditions: treatment dosage 315 g/ha
# In short: as §1
# [3] = tested on: crabgrass; experiment: Test Example 3: weedkilling efficacy through soil treatment; D: crabgrass; conditions: treatment dosage 315 g/ha
# In short: as §1
# [4] = tested on: oval-leafed pondweed; experiment: Test Example 1: weedkilling efficacy, preemergent weed treatment in the submerged state; C: oval-leafed pondweed; conditions: treatment dosage 252 g/ha
# In short: (§2)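 Pre-emergence paddy test: weed seeds sown in submerged alluvial soil (4 cm water), 2.5-leaf rice transplanted, water-diluted emulsion applied to water surface at sowing at stated g/ha. Scored at 3 weeks, greenhouse 25–30 °C.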
# [5] = tested on: oval-leafed pondweed; experiment: Test Example 2: weedkilling efficacy, growth period weed treatment in the submerged state; C: oval-leafed pondweed; conditions: treatment dosage 252 g/ha
# In short: (§3)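 Seedlings at 1-2 leaves in 4 cm-deep submerged alluvial soil received emulsion formulations on the water surface, dosed per hectare; effects were judged 3 weeks on.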
# [6] = tested on: black-grass; experiment: Test Example 3: weedkilling efficacy through soil treatment; H: black-grass; conditions: treatment dosage 315 g/ha
# In short: as §1
# [7] = tested on: wild oat; experiment: Test Example 3: weedkilling efficacy through soil treatment; G: wild oat; conditions: treatment dosage 315 g/ha
# In short: as §1
# [8] = tested on: wheat; experiment: Test Example 3: soil treatment, effect on crop; e: wheat; conditions: treatment dosage 315 g/ha
# In short: as §1
# [9] = tested on: barnyard grass; experiment: Test Example 1: weedkilling efficacy, preemergent weed treatment in the submerged state; A: barnyard grass; conditions: treatment dosage 252 g/ha
# In short: as §2
# [10] = tested on: black-grass; experiment: Test Example 4: weedkilling efficacy by foliar treatment; H: black-grass; conditions: treatment dosage 315 g/ha
# In short: (§4)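 Seeds are spot-sown into sterilized diluvial soil and covered with about 1.5 cm of soil. After 14 days' greenhouse growth at 25 to 30° C, plants are sprayed on stems and leaves with diluted emulsion at the stated g/ha rate, then scored at 3 weeks.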
# [11] = tested on: redroot pigweed; experiment: Test Example 3: weedkilling efficacy through soil treatment; L: redroot pigweed; conditions: treatment dosage 315 g/ha
# In short: as §1
# [12] = tested on: green foxtail; experiment: Test Example 3: weedkilling efficacy through soil treatment; E: green foxtail; conditions: treatment dosage 315 g/ha
# In short: as §1
# [13] = tested on: redroot pigweed; experiment: Test Example 4: weedkilling efficacy by foliar treatment; L: redroot pigweed; conditions: treatment dosage 315 g/ha
# In short: as §4
# [14] = tested on: green foxtail; experiment: Test Example 4: weedkilling efficacy by foliar treatment; E: green foxtail; conditions: treatment dosage 315 g/ha
# In short: as §4
# [15] = tested on: catchweed; experiment: Test Example 4: weedkilling efficacy by foliar treatment; O: catchweed; conditions: treatment dosage 315 g/ha
# In short: as §4
# [16] = tested on: fig-leafed goosefoot; experiment: Test Example 4: weedkilling efficacy by foliar treatment; M: fig-leafed goosefoot; conditions: treatment dosage 315 g/ha
# In short: as §4
# [17] = tested on: directly sown rice; experiment: Test Example 4: foliar treatment, effect on crop; b: directly sown rice; conditions: treatment dosage 315 g/ha
# In short: as §4
# [18] = tested on: beet; experiment: Test Example 4: foliar treatment, effect on crop; f: beet; conditions: treatment dosage 315 g/ha
# In short: as §4
# [19] = tested on: Indian mallow; experiment: Test Example 4: weedkilling efficacy by foliar treatment; K: Indian mallow; conditions: treatment dosage 315 g/ha
# In short: as §4
# [20] = tested on: barnyard grass; experiment: Test Example 2: weedkilling efficacy, growth period weed treatment in the submerged state; A: barnyard grass; conditions: treatment dosage 252 g/ha
# In short: as §3
# [21] = tested on: corn; experiment: Test Example 4: foliar treatment, effect on crop; c: corn; conditions: treatment dosage 315 g/ha
# In short: as §4
# [22] = tested on: crabgrass; experiment: Test Example 4: weedkilling efficacy by foliar treatment; D: crabgrass; conditions: treatment dosage 315 g/ha
# In short: as §4
# [23] = tested on: catchweed; experiment: Test Example 3: weedkilling efficacy through soil treatment; O: catchweed; conditions: treatment dosage 315 g/ha
# In short: as §1
# [24] = tested on: chickweed; experiment: Test Example 4: weedkilling efficacy by foliar treatment; N: chickweed; conditions: treatment dosage 315 g/ha
# In short: as §4
# [25] = tested on: corn; experiment: Test Example 3: soil treatment, effect on crop; c: corn; conditions: treatment dosage 315 g/ha
# In short: as §1
# [26] = tested on: wheat; experiment: Test Example 4: foliar treatment, effect on crop; e: wheat; conditions: treatment dosage 315 g/ha
# In short: as §4
# [27] = tested on: beet; experiment: Test Example 3: soil treatment, effect on crop; f: beet; conditions: treatment dosage 315 g/ha
# In short: as §1
# [28] = tested on: wild oat; experiment: Test Example 4: weedkilling efficacy by foliar treatment; G: wild oat; conditions: treatment dosage 315 g/ha
# In short: as §4
# [29] = tested on: soybean; experiment: Test Example 4: foliar treatment, effect on crop; d: soybean; conditions: treatment dosage 315 g/ha
# In short: as §4
# [30] = tested on: bulrush; experiment: Test Example 1: weedkilling efficacy, preemergent weed treatment in the submerged state; B: bulrush; conditions: treatment dosage 252 g/ha
# In short: as §2
# [31] = tested on: Italian ryegrass; experiment: Test Example 4: weedkilling efficacy by foliar treatment; I: Italian ryegrass; conditions: treatment dosage 315 g/ha
# In short: as §4
# [32] = tested on: Indian mallow; experiment: Test Example 3: weedkilling efficacy through soil treatment; K: Indian mallow; conditions: treatment dosage 315 g/ha
# In short: as §1
# [33] = tested on: birds-eye speedwell; experiment: Test Example 3: weedkilling efficacy through soil treatment; p: birds-eye speedwell; conditions: treatment dosage 315 g/ha
# In short: as §1
# [34] = tested on: chickweed; experiment: Test Example 3: weedkilling efficacy through soil treatment; N: chickweed; conditions: treatment dosage 315 g/ha
# In short: as §1
# [35] = tested on: transplanted rice; experiment: Test Example 1: preemergent weed treatment in the submerged state, effect on crop; a: transplanted rice; conditions: treatment dosage 252 g/ha
# In short: as §2
# [36] = tested on: bulrush; experiment: Test Example 2: weedkilling efficacy, growth period weed treatment in the submerged state; B: bulrush; conditions: treatment dosage 252 g/ha
# In short: as §3
# [37] = tested on: Italian ryegrass; experiment: Test Example 3: weedkilling efficacy through soil treatment; I: Italian ryegrass; conditions: treatment dosage 315 g/ha
# In short: as §1
# [38] = tested on: soybean; experiment: Test Example 3: soil treatment, effect on crop; d: soybean; conditions: treatment dosage 315 g/ha
# In short: as §1
# [39] = tested on: birds-eye speedwell; experiment: Test Example 4: weedkilling efficacy by foliar treatment; p: birds-eye speedwell; conditions: treatment dosage 315 g/ha
# In short: as §4
Compound,M (fig-leafed goosefoot) weedkilling efficacy grade [1],D (crabgrass) weedkilling efficacy grade [3],C (oval-leafed pondweed) weedkilling efficacy grade [4],C (oval-leafed pondweed) weedkilling efficacy grade [5],H (black-grass) weedkilling efficacy grade [6],G (wild oat) weedkilling efficacy grade [7],e (wheat) effect on crop grade [8],A (barnyard grass) weedkilling efficacy grade [9],H (black-grass) weedkilling efficacy grade [10],L (redroot pigweed) weedkilling efficacy grade [11],E (green foxtail) weedkilling efficacy grade [12],L (redroot pigweed) weedkilling efficacy grade [13],E (green foxtail) weedkilling efficacy grade [14],O (catchweed) weedkilling efficacy grade [15],b (directly sown rice) effect on crop grade [17],K (Indian mallow) weedkilling efficacy grade [19],A (barnyard grass) weedkilling efficacy grade [20],c (corn) effect on crop grade [21],D (crabgrass) weedkilling efficacy grade [22],N (chickweed) weedkilling efficacy grade [24],other results
CC1=C(c2ccccc2)C(=O)N(C(C)(C)C(=O)Nc2cc(C(F)(F)F)ccn2)CO1 [B-2-57],"4 (weed kill ratio 70% or more, less than 90%)","5 (weed kill ratio 90% or more, (practically complete withering))","5 (weed kill ratio 90% or more, (practically complete withering))","5 (weed kill ratio 90% or more, (practically complete withering))","5 (weed kill ratio 90% or more, (practically complete withering))","5 (weed kill ratio 90% or more, (practically complete withering))",0 (weed kill ratio 5% or less (practically no effect)),"5 (weed kill ratio 90% or more, (practically complete withering))","5 (weed kill ratio 90% or more, (practically complete withering))","5 (weed kill ratio 90% or more, (practically complete withering))","5 (weed kill ratio 90% or more, (practically complete withering))","5 (weed kill ratio 90% or more, (practically complete withering))","5 (weed kill ratio 90% or more, (practically complete withering))","5 (weed kill ratio 90% or more, (practically complete withering))","5 (weed kill ratio 90% or more, (practically complete withering))","5 (weed kill ratio 90% or more, (practically complete withering))","5 (weed kill ratio 90% or more, (practically complete withering))","5 (weed kill ratio 90% or more, (practically complete withering))","5 (weed kill ratio 90% or more, (practically complete withering))","3 (weed kill ratio 40% or more, less than 70%)","b (directly sown rice) effect on crop grade [2]: 5 (weed kill ratio 90% or more, (practically complete withering)); M (fig-leafed goosefoot) weedkilling efficacy grade [16]: 3 (weed kill ratio 40% or more, less than 70%); f (beet) effect on crop grade [18]: 3 (weed kill ratio 40% or more, less than 70%); O (catchweed) weedkilling efficacy grade [23]: 5 (weed kill ratio 90% or more, (practically complete withering)); c (corn) effect on crop grade [25]: 4 (weed kill ratio 70% or more, less than 90%); e (wheat) effect on crop grade [26]: 1 (weed kill ratio 5% or more, less than 20%); f (beet) effect on crop grade [27]: 3 (weed kill ratio 40% or more, less than 70%); G (wild oat) weedkilling efficacy grade [28]: 5 (weed kill ratio 90% or more, (practically complete withering)); d (soybean) effect on crop grade [29]: 4 (weed kill ratio 70% or more, less than 90%); B (bulrush) weedkilling efficacy grade [30]: 5 (weed kill ratio 90% or more, (practically complete withering)); I (Italian ryegrass) weedkilling efficacy grade [31]: 5 (weed kill ratio 90% or more, (practically complete withering)); K (Indian mallow) weedkilling efficacy grade [32]: 5 (weed kill ratio 90% or more, (practically complete withering)); P (birds-eye speedwell) weedkilling efficacy grade [33]: 5 (weed kill ratio 90% or more, (practically complete withering)); N (chickweed) weedkilling efficacy grade [34]: 4 (weed kill ratio 70% or more, less than 90%); a (transplanted rice) effect on crop grade [35]: 4 (weed kill ratio 70% or more, less than 90%); B (bulrush) weedkilling efficacy grade [36]: 5 (weed kill ratio 90% or more, (practically complete withering)); I (Italian ryegrass) weedkilling efficacy grade [37]: 5 (weed kill ratio 90% or more, (practically complete withering)); d (soybean) effect on crop grade [38]: 4 (weed kill ratio 70% or more, less than 90%)"
CC1=C(c2ccccc2)C(=O)N(C(C)(C)C(=O)Nc2cncc(F)c2)CO1 [B-3-01],"5 (weed kill ratio 90% or more, (practically complete withering))","5 (weed kill ratio 90% or more, (practically complete withering))","5 (weed kill ratio 90% or more, (practically complete withering))","4 (weed kill ratio 70% or more, less than 90%)","5 (weed kill ratio 90% or more, (practically complete withering))","5 (weed kill ratio 90% or more, (practically complete withering))","5 (weed kill ratio 90% or more, (practically complete withering))","5 (weed kill ratio 90% or more, (practically complete withering))","5 (weed kill ratio 90% or more, (practically complete withering))","4 (weed kill ratio 70% or more, less than 90%)","5 (weed kill ratio 90% or more, (practically complete withering))","3 (weed kill ratio 40% or more, less than 70%)","5 (weed kill ratio 90% or more, (practically complete withering))","4 (weed kill ratio 70% or more, less than 90%)","5 (weed kill ratio 90% or more, (practically complete withering))","3 (weed kill ratio 40% or more, less than 70%)","3 (weed kill ratio 40% or more, less than 70%)","4 (weed kill ratio 70% or more, less than 90%)","5 (weed kill ratio 90% or more, (practically complete withering))","2 (weed kill ratio 20% or more, less than 40%)","P (birds-eye speedwell) weedkilling efficacy grade [39]: 3 (weed kill ratio 40% or more, less than 70%); c (corn) effect on crop grade [25]: 3 (weed kill ratio 40% or more, less than 70%); e (wheat) effect on crop grade [26]: 1 (weed kill ratio 5% or more, less than 20%); f (beet) effect on crop grade [27]: 4 (weed kill ratio 70% or more, less than 90%); G (wild oat) weedkilling efficacy grade [28]: 5 (weed kill ratio 90% or more, (practically complete withering)); d (soybean) effect on crop grade [29]: 4 (weed kill ratio 70% or more, less than 90%); B (bulrush) weedkilling efficacy grade [30]: 5 (weed kill ratio 90% or more, (practically complete withering)); I (Italian ryegrass) weedkilling efficacy grade [31]: 5 (weed kill ratio 90% or more, (practically complete withering)); K (Indian mallow) weedkilling efficacy grade [32]: 2 (weed kill ratio 20% or more, less than 40%); N (chickweed) weedkilling efficacy grade [34]: 4 (weed kill ratio 70% or more, less than 90%); a (transplanted rice) effect on crop grade [35]: 0 (weed kill ratio 5% or less (practically no effect)); B (bulrush) weedkilling efficacy grade [36]: 5 (weed kill ratio 90% or more, (practically complete withering)); I (Italian ryegrass) weedkilling efficacy grade [37]: 5 (weed kill ratio 90% or more, (practically complete withering)); d (soybean) effect on crop grade [38]: 0 (weed kill ratio 5% or less (practically no effect))"
